Reference: patent publication US11744246B2, “Preparation of mammalian oocyte for fertilization via a soluble human PH20 hyaluronidase polypeptide” (SYNGENTA PARTICIPATIONS AG, priority 2017, dated 2023)

Assays:
Format in all cases: cell-based
[1] = tested on: Botryotinia fuckeliana (Botrytis cinerea); test: Botryotinia fuckeliana (Botrytis cinerea)/Liquid Culture (Gray Mould); conditions: 72 h, liquid culture, growth inhibition photometrically 3-4 days after application, compared to untreated control
[2] = tested on: Glomerella lagenarium (Colletotrichum lagenarium); test: Glomerella Lagenarium (Colletotrichum Lagenarium)/Liquid Culture (Anthracnose); conditions: Colletotrichum orbiculare, liquid culture, growth inhibition photometrically 3-4 days after application, compared to untreated control
Fusarium culmorum = test: microbe, parasite or virus in culture; conditions: 72 h, read-out: control of Fusarium culmorum
[3] = tested on: Monographella nivalis (Microdochium nivale); test: Monographella nivalis (Microdochium nivale)/Liquid Culture (Foot Rot Cereals); conditions: 96 h, liquid culture, growth inhibition photometrically 4-5 days after application, compared to untreated control
[4] = tested on: Magnaporthe grisea (Pyricularia oryzae); test: microbe, parasite or virus in culture; conditions: read-out: control of Magnaporthe grisea

Measured: inhibition of growth at 20 ppm

CC(COC1CCC1)(CC(F)(F)F)C(=O)Nc1cnc2c(F)cccc2c1 (stereo not shown) [E.07, 2-(cyclobutoxymethyl)-4,4,4-trifluoro-N-(8-fluoro-3-quinolyl)-2-methyl-butanamide]
≥ 80%: all assays above

CC(COc1cccc(F)c1)(CC(F)(F)F)C(=O)Nc1cnc2c(F)cccc2c1 (stereo not shown) [E.02, 4,4,4-trifluoro-2-[(3-fluorophenoxy)methyl]-N-(8-fluoro-3-quinolyl)-2-methyl-butanamide]
≥ 80%: all assays above

CC(C)(C)COCC(C)(CC(F)(F)F)C(=O)Nc1cnc2c(F)cccc2c1 (stereo not shown) [E.04, 2-(2,2-dimethylpropoxymethyl)-4,4,4-trifluoro-N-(8-fluoro-3-quinolyl)-2-methyl-butanamide]
≥ 80%: all assays above

CC(COC1CCCCC1)(CC(F)(F)F)C(=O)Nc1cnc2c(F)cccc2c1 (stereo not shown) [E.08, 2-(cyclohexoxymethyl)-4,4,4-trifluoro-N-(8-fluoro-3-quinolyl)-2-methyl-butanamide]
≥ 80%: all assays above

CC(COc1ccc(Cl)cc1)(CC(F)(F)F)C(=O)Nc1cnc2c(F)cccc2c1 (stereo not shown) [E.05, 2-[(4-chlorophenoxy)methyl]-4,4,4-trifluoro-N-(8-fluoro-3-quinolyl)-2-methyl-butanamide]
≥ 80%: all assays above

CC(COc1ccc(F)cc1)(CC(F)(F)F)C(=O)Nc1cnc2c(F)cccc2c1 (stereo not shown) [E.03, 4,4,4-trifluoro-2-[(4-fluorophenoxy)methyl]-N-(8-fluoro-3-quinolyl)-2-methyl-butanamide]
≥ 80%: all assays above

CC1(OCC(C)(CC(F)(F)F)C(=O)Nc2cnc3c(F)cccc3c2)CCCC1 (stereo not shown) [E.06, 4,4,4-trifluoro-N-(8-fluoro-3-quinolyl)-2-methyl-2-[(1-methylcyclopentoxy)meth-yl]butanamide]
≥ 80%: all assays above

CC(COc1ccccc1F)(CC(F)(F)F)C(=O)Nc1cnc2c(F)cccc2c1 (stereo not shown) [E.01, 4,4,4-trifluoro-2-[(2-fluorophenoxy)methyl]-N-(8-fluoro-3-quinolyl)-2-methyl-butanamide]
≥ 80%: all assays above
